Experiments:
Islr2 = experiment: Vasn/Islr2 interaction used to adjust the AVEXIS screen; type: binding; settings: Vasn (Slit-like2)/Islr2, in preparation
Description: The bait proteins have been immobilized on streptavidin coated 96 well microtiter plates (one bait/well) and incubated for 1 hour at room temperature. After 3 wash steps using HBS as wash buffer the baits have been probed by 50 μl of normalized prey proteins. After one-hour incubation the non-bound preys have been washed away by 2 washes with HBST (0.05% Tween) followed by two HBS washes. Then 50 μl of nitrocefin/well (0.1 mg/ml) has been added and incubated for 1 h at room temperature. Then the absorbance at 486 nm of each well has been measured using a μQuant spectrophotometer (BIO-TEK Instruments, INC). As a positive control for the prey proteins we used the Matn4 ECD as mono-biotinylated bait protein.

Netrin1a [1] = experiment: AVEXIS domain mapping with monomeric prey proteins; type: binding, zebrafish; settings: monomeric preys
Description: For the binding interface mapping experiments we used monomeric prey proteins. The concentration of the monomeric preys has been determined as described for the AVEXIS assay (β ? lactamase enzymatic activity). […] Both prey and bait orientations were tested in the domain mapping screen and two repeats for each orientation had been carried out.
To map down the Netrin1a binding region in DraxinA we generated a series of DraxinA truncations and deletions and tested them for binding against Netrin1a (FIG. 4).

Netrin1a [2] = experiment: AVEXIS extracellular protein-protein interaction screen; type: binding, zebrafish; settings: prey against 141 bait proteins, bait against 191 prey proteins
Text: To detect extracellular protein-protein interactions in a high-throughput manner we used the AVEXIS assay as described in Bushell et al. (Bushell et al., 2008) with minor modifications.
In brief: A zebrafish protein library enriched for mainly in neuronal tissues expressed secreted proteins and extracellular domains of cell surface proteins has been assembled. The library consists of prey and bait proteins. Preys are composed of the extracellular domain (ECD) of interest followed by a CD4 tag (rat Cd4d3+4) and a pentamerization domain derived from the rat Comp protein followed by β-lactamase. For the bait proteins the ECDs are fused to a CD4 tag and a biotinylation peptide. […] The proteins in the supernatants have been quantified and normalized.
The bait proteins have been immobilized on streptavidin coated 96 well microtiter plates (one bait/well) and incubated for 1 hour at room temperature. […] Then the absorbance at 486 nm of each well has been measured using a μQuant spectrophotometer (BIO-TEK Instruments, INC). […]
In the primary screen interactions were ‘called’ if the absorbance (at 486 nm) of a well after 1 h of incubation was ≥0.1 and 3 Sigma above the standard deviations of the mean of all wells. All interactions detected in the primary screen have been retested in a validation screen by using independently produced batches of proteins.

Netrin-1 = target: T1, Netrin-1 (Homo sapiens, UniProt O95631); experiment: AVEXIS pairwise binding screen, human proteins; settings: both bait/prey orientations
T1 construct: made in house; host or cells: HEK293-6E (general AVEXIS method)
Text: (§1) AVEXIS was used to test pairwise binding events in both bait/prey orientations between human DRAXIN, the derived 21 amino acid peptide, human Netrin family members, and two representative Netrin receptors (DCC, UNC5B). The Matn4-bait served as an internal prey-protein control and was used for normalization of the A486 nm values; conditioned medium (CM) serves as negative control; n=3.
(§2) To determine the binding specificity of DRAXIN/Netrin interactions, we carried out a pairwise binding screen between human DRAXIN and human Netrin family members. Except Netrin-5, we included all human Netrin family members consisting of two secreted γ-Netrins (Netrin-1 and Netrin-3) and one secreted (Netrin-4) and two GPI-linked β-Netrins (Netrin-G1 and Netrin-G2) in our binding study. Human DRAXIN and a 21 amino acid Netrin binding fragment derived thereof (SEQ ID NO.: 1) bound to Netrin-1 and Netrin-3 but not to human β-Netrin family members (FIG. 13).

[3] = system: human β-Netrin family members; experiment: AVEXIS pairwise binding screen, human proteins; settings: Netrin-4, Netrin-G1, Netrin-G2
Text: as §1, §2

Netrin-3 = target: T2, Netrin-3 (Homo sapiens, UniProt O00634); experiment: AVEXIS pairwise binding screen, human proteins; settings: both bait/prey orientations
T2 construct: made in house; host or cells: HEK293-6E (general AVEXIS method)
Text: as §1, §2

T2 sequence (O00634 28-580): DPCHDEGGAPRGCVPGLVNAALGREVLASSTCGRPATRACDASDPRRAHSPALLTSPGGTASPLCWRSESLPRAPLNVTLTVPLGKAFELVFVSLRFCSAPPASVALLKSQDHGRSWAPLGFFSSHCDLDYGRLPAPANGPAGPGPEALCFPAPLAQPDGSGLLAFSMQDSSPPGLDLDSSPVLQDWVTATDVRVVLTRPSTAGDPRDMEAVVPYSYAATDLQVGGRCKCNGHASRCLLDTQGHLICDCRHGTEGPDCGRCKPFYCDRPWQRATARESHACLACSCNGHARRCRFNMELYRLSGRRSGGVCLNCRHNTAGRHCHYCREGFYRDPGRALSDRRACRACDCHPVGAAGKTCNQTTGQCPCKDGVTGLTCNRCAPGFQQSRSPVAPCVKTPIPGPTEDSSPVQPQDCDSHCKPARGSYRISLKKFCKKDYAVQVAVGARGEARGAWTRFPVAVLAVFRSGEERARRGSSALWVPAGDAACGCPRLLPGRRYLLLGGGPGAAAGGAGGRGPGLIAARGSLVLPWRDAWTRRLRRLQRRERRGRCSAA

Vasn: Vasn (Slit-like2), binding partner of Islr2, reference weak interaction
Kd (Islr2): 12 µM

EVMPTLDMTLFDWTDYEDMKP (Danio rerio) [21aa DraxinA derived peptide, 21aa fragment (aa232-252) of zebrafish DraxinA, as AVEXIS prey or bait]
binding of DraxinA truncations and deletions to Netrin1a (Netrin1a [1]): sufficient for the binding | binding specificity against protein library (Netrin1a [2]; listed as DraxinAaa232-252-bait): only interacted with the Ntn1a-prey | binding specificity against protein library (Netrin1a [2]; listed as DraxinAaa232-252-prey): only bound to the Ntn1a-bait

EVMPTLDMALFDWTDYEDLKP (listed as Homo sapiens) [SEQ ID NO.: 1]
binding to Netrin-1 (Netrin-1): bound | binding to human β-Netrin family members [3]: not | binding to Netrin-3 (Netrin-3): bound
